Species: Rattus norvegicus
Experiment: Open TG-GATES - Regimen: Daily Repeat
Format: toxicity, organism-based, Sprague-Dawley
Set-up: regimen Daily Repeat, gender Male, age 6 weeks
Conditions: in vivo, po, 1000 mg/kg, […], route gavage, dose level High; for KIDNEY_L / KIDNEY_R / KIDNEY_TOTAL: tissue Kidney; for LIVER: tissue Liver; for ALP / ALT / AST / BUN / CRE / Ca / Cl / DBIL / GLC / IP / K / LDH / Na / PL / RALB / TBIL / TG / TP / gamma-GTP: tissue Plasma

With CN(C)C(=N)N=C(N)N [METFORMIN] the Ht (tissue Blood, time 28 day) was 43.7%, the Lym (tissue Blood, time 28 day) was 74.6% and the MCHC (tissue Blood, time 28 day) was 34.3%. It also gave an MCV (tissue Blood, time 28 day) of 57.7 fL, a Mono (tissue Blood, time 28 day) of 3.2% and a Neu (tissue Blood, time 28 day) of 20.6%. It also gave a PT (tissue Blood, time 28 day) of 12 s, a Plat (tissue Blood, time 28 day) of 105.5 x10_4/uL and an RBC (tissue Blood, time 28 day) of 757.4 x10_4/ul. It also gave a Ret (tissue Blood, time 28 day) of 2.6%, a WBC (tissue Blood, time 28 day) of 108.4 x10_2/uL and a KIDNEY_L (time 7 day) of 1.1 g. It also gave a KIDNEY_R (time 7 day) of 1 g, a KIDNEY_TOTAL (time 7 day) of 2.1 g and a KIDNEY_L (time 14 day) of 1.2 g. It also gave a KIDNEY_R (time 14 day) of 1.1 g, a KIDNEY_TOTAL (time 14 day) of 2.3 g and a KIDNEY_L (time 28 day) of 1.4 g. The KIDNEY_R (time 28 day) was 1.4 g, the KIDNEY_TOTAL (time 28 day) was 2.8 g and the LIVER (time 7 day) was 12.1 g. It also gave an LIVER (time 14 day) of 14.4 g, an LIVER (time 28 day) of 16.5 g and an ALP (time 7 day) of 1316.4 IU/L. The ALT (time 7 day) was 44.4 IU/L, the AST (time 7 day) was 82.2 IU/L and the BUN (time 7 day) was 15 mg/dL. The CRE (time 7 day) was 0.2 mg/dL, the Ca (time 7 day) was 10.9 mg/dL and the Cl (time 7 day) was 104.2 meq/L. It also gave a DBIL (time 7 day) of 0.012 mg/dL, a GLC (time 7 day) of 193.2 mg/dL and an IP (time 7 day) of 8.4 mg/dL. For the same compound, the K (time 7 day) was 4.4 meq/L, the LDH (time 7 day) was 57.4 IU/L and the Na (time 7 day) was 140.8 meq/L. The PL (time 7 day) was 141.6 mg/dL, the RALB (time 7 day) was 2.6 g/dL and the TBIL (time 7 day) was 0.024 mg/dL. The TG (time 7 day) was 92.2 mg/dL, the TP (time 7 day) was 5.5 g/dL and the gamma-GTP (time 7 day) was 1 IU/L. For the same compound, the ALP (time 14 day) was 1249.8 IU/L, the ALT (time 14 day) was 39 IU/L and the AST (time 14 day) was 75 IU/L. For the same compound, the BUN (time 14 day) was 17.6 mg/dL, the CRE (time 14 day) was 0.2 mg/dL and the Ca (time 14 day) was 11 mg/dL. For the same compound, the Cl (time 14 day) was 103.6 meq/L, the DBIL (time 14 day) was 0.008 mg/dL and the GLC (time 14 day) was 188.6 mg/dL. The IP (time 14 day) was 6.9 mg/dL, the K (time 14 day) was 4.1 meq/L and the LDH (time 14 day) was 61.2 IU/L. For the same compound, the Na (time 14 day) was 141.4 meq/L, the PL (time 14 day) was 164 mg/dL and the RALB (time 14 day) was 2.8 g/dL. The TBIL (time 14 day) was 0.026 mg/dL, the TG (time 14 day) was 148.6 mg/dL and the TP (time 14 day) was 6 g/dL. The gamma-GTP (time 14 day) was 1.2 IU/L, the ALP (time 28 day) was 1090.4 IU/L and the ALT (time 28 day) was 41.6 IU/L. It also gave an AST (time 28 day) of 71.4 IU/L, a BUN (time 28 day) of 17.4 mg/dL and a CRE (time 28 day) of 0.2 mg/dL. For the same compound, the Ca (time 28 day) was 11.1 mg/dL, the Cl (time 28 day) was 104 meq/L and the DBIL (time 28 day) was 0.014 mg/dL. For the same compound, the GLC (time 28 day) was 194.2 mg/dL, the IP (time 28 day) was 6.7 mg/dL and the K (time 28 day) was 3.9 meq/L. It also gave an LDH (time 28 day) of 50.2 IU/L, a Na (time 28 day) of 145.2 meq/L and a PL (time 28 day) of 152.6 mg/dL. The RALB (time 28 day) was 2.7 g/dL, the TBIL (time 28 day) was 0.034 mg/dL and the TG (time 28 day) was 148 mg/dL. It also gave a TP (time 28 day) of 6 g/dL and a gamma-GTP (time 28 day) of 1 IU/L.
